Reference: patent publication US20230028441A1, “NOVEL HETEROARYL-TRIAZOLE COMPOUNDS AS PESTICIDES” (Bayer Aktiengesellschaft, priority 2019, published 2023)

Experiments:
Format in all cases: in vivo
[1] = system: green peach aphid (Myzus persicae); assay: Myzus persicae spray test; conditions: foliar, 120 h, after 5 days, Chinese cabbage leaf disks
Method in brief: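 Chinese cabbage leaf disks carrying all instars of Myzus persicae were sprayed with compound. The formulation was acetone/dimethylformamide diluted in water with 1000 ppm alkylarylpolyglycol ether emulsifier. Percent mortality was scored after 5 days, with 100% meaning all aphids killed.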

[2] = system: green peach aphid (Myzus persicae); assay: Myzus persicae oral test; conditions: 120 h
Method in brief: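 Oral uptake format: water-diluted acetone concentrate of compound is blended into IPL41 medium carrying 33%+15% sugar and offered under a parafilm membrane. Percentage of dead insects is recorded after 5 days.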

[3] = system: adult engorged female ticks (Rhipicephalus microplus); assay: Rhipicephalus (Boophilus) microplus injection test; conditions: 168 h, egg deposition after 7 days, read-out: efficacy (infertile eggs)
Method in brief: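 Compound was dissolved in DMSO at 10 mg per 0.5 mL and diluted with DMSO to the test concentration. Five engorged adult females received a 1 μL abdominal injection and were kept in a climate chamber. After 7 days, fertile egg deposition was scored, with unclear eggs held until hatching at about 42 days; 100% efficacy means all eggs were infertile.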

[4] = system: adult brown dog ticks (Rhipicephalus sanguineus); assay: Rhipicephalus sanguineus in-vitro contact test with adult brown dog ticks; conditions: after 48 hours, read-out: efficacy (ticks dead or moribund); for pest or weed control at 1 µg/cm2, 100 g/ha: 1 μg/cm^2 (=100 g/ha); for pest or weed control at 5 µg/cm2, 500 g/ha: 5 μg/cm^2 (=500 g/ha)
Method in brief: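 Compound in acetone coated onto glass tube inner walls at 900 ppm, giving 5 μg/cm^2. Adult ticks (5-10 per tube) held at room temperature for 48 h, then placed on a 45-50° C. heating plate for up to 5 min. Ticks unable to climb away counted dead or moribund; efficacy given as % dead/moribund.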

[5] = system: cattle tick larvae (Rhipicephalus microplus), strain Parkhurst, resistant against synthetic pyrethroids; assay: Rhipicephalus (Boophilus) microplus in-vitro contact test, larval cattle tick; conditions: 5 μg/cm^2 (=500 g/ha), after 48 hours, read-out: efficacy (larvae dead or moribund)
Method in brief: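 Acetone solutions of compound were coated on glass tube walls (900 ppm giving 5 μg/cm^2) and dried. 20–50 pyrethroid-resistant Parkhurst larvae were held per tube at 27° C and 85% relative humidity; after 48 h negative geotaxis scored efficacy as percent larvae dead or moribund.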

[6] = system: two spotted spidermite (Tetranychus urticae); assay: Tetranychus urticae spray test, OP-resistant; conditions: foliar, 144 h, after 6 days, French bean leaf disks
Description: Solvent: 78.0 parts by weight acetone • 1.5 parts by weight dimethylformamide
Emulsifier: alkylarylpolyglycol ether
To produce a suitable preparation of active compound, 1 part by weight of active compound is mixed with the stated amount of solvents and is diluted with water, containing an emulsifier concentration of 1000 ppm, to the desired concentration. Further test concentrations are prepared by dilution with emulsifier containing water.
French bean (Phaseolus vulgaris) leaf disks infected with all instars of the two spotted spidermite (Tetranychus urticae), are sprayed with a preparation of the active ingredient of the desired concentration.
After 6 days mortality in % is determined. 100% means all spider mites have been killed and 0% means none of the spider mites have been killed.

[7] = system: larvae of the southern green stink bug (Nezara viridula); assay: Nezara viridula spray test; conditions: in Hordeum vulgare, 96 h
Method in brief: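 Barley plants infested with Nezara viridula larvae were sprayed with compound in acetone/dimethylformamide, diluted in water containing 1000 ppm alkylarylpolyglycol ether emulsifier. Mortality (%) was scored after 4 days; 100% means all stink bugs killed.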

[8] = system: caterpillars of the fall army worm (Spodoptera frugiperda); assay: Spodoptera frugiperda spray test (cotton leaves); conditions: 168 h
Method in brief: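 Cotton leaves sprayed with compound in water/DMF with 1000 ppm alkylaryl polyglycol ether emulsifier, ammonium salt and/or penetration enhancer at 1000 ppm added if necessary, then infested with fall armyworm caterpillars. Mortality in % scored after 7 days; 100% means all caterpillars killed.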

[9] = system: adult unfed cat fleas (Ctenocephalides felis); assay: Ctenocephalides felis oral test; conditions: 48 h, 100 ppm in cattle blood, after 2 days
Method in brief: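 About 20 adult unfed Ctenocephalides felis fed through parafilm on cattle blood dosed with compound (DMSO stock diluted in blood), blood chamber at 37°C, fleas at room temperature. Mortality (%) scored after 2 days; 100% means all fleas killed.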

[10] = system: fall armyworm larvae (Spodoptera frugiperda); assay: Spodoptera frugiperda spray test (maize leaf sections); conditions: 168 h
Method in brief: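 Maize leaf sections were sprayed with compound formulated in acetone/DMF and diluted in water containing 1000 ppm emulsifier. Once dry, sections were infested with fall armyworm larvae. Mortality (%) was scored after 7 days.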

[11] = system: larvae of the banded cucumber beetle (Diabrotica balteata); assay: Diabrotica balteata spray test; conditions: 168 h, after 7 days, wheat seeds, read-out: efficacy (seedlings grown up); for pest or weed control at 32 µg/disc, 100 g/ha: 100 g/ha (=32 μg/well); for pest or weed control at 160 µg/disc, 500 g/ha: 500 g/ha (=160 μg/well)
Method in brief: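 Germinated wheat seedlings (5 per well, agar plates) sprayed with compound in acetone/DMF diluted in water with 1000 ppm emulsifier, then infested with 10-20 larvae per unit. Efficacy scored after 7 days as % seedling growth relative to untreated, uninfested control (100% = normal growth, 0% = none).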

[12] = system: southern root-knot nematode (Meloidogyne incognita); assay: Meloidogyne incognita test; conditions: 336 h, after 14 days, read-out: nematicidal activity (gall formation)
Description: Solvent: 125.0 parts by weight of acetone
To produce a suitable preparation of active compound, 1 part by weight of active compound is mixed with the stated amount of solvent, and the concentrate is diluted with water to the desired concentration.
Vessels are filled with sand, a solution of the active ingredient, a suspension containing eggs and larvae of the southern root-knot nematode (Meloidogyne incognita) and salad seeds. The salad seeds germinate and the seedlings grow. Galls develop in the roots.
After 14 days the nematicidal activity is determined on the basis of the percentage of gall formation. 100% means no galls were found and 0% means the number of galls found on the roots of the treated plants was equal to that in untreated control plants.

[13] = system: Blattella germanica strain PAULINIA; assay: Blattella germanica test (BLTTGE surface treatment & contact assay); conditions: 24 hours after contact, read-out: efficacy (mortality)
Description: (§1) Solvent: Aceton+2000 ppm rapeseed oil methyl ester (RME)
(§2) In order to produce a sufficient, active ingredient containing solution it is necessary to solve the test compound in the solvent-mix (acetone at 2 mg/ml/RME 2000 ppm). This solution is pipetted onto a glazed tile and after evaporation of the acetone, adult animals of the species Blattella germanica strain PAULINIA are placed onto the dried surface. The exposure time is 30 minutes.
(§3) Mortality in percent (%) is determined 24 hours after contact of the insects to the treated surface. 100% mortality means that all tested insects are dead, whereas 0% means that no insect died.

[14] = system: Anopheles funestus strain FUMOZ-R; assay: Anopheles funestus test (ANPHFU surface treatment & contact assay); conditions: surface concentration 20 mg/m^2, 30 minutes exposure, 24 hours after contact, read-out: efficacy (mortality)
Description: as §1
as §2, with “mosquitoes” for “animals”, “Anopheles funestus” for “Blattella germanica”, “FUMOZ-R (Hunt et al., Med. Vet. Entomol. 2005 September; 19(3): 271-275)” for “PAULINIA”
as §3

[15] = system: adult cat fleas (Ctenocephalides felis); assay: Ctenocephalides felis in-vitro contact test, adult cat flea; conditions: 5 μg/cm^2 (=500 g/ha), after 48 hours, read-out: efficacy (fleas dead or moribund)
Method in brief: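 Acetone solutions were coated on glass tube walls, 900 ppm giving 5 μg/cm^2. After drying, 5-10 adult fleas per tube were held 48 h at room temperature. Fleas unable to climb away from a 45-50 °C heating plate within 5 min were scored dead or moribund, as % efficacy.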

[16] = system: Aedes aegypti strain MONHEIM; assay: Aedes aegypti test (AEDSAE surface treatment & contact assay); conditions: 24 hours after contact, read-out: efficacy (mortality)
Description: as §1
as §2, with “mosquitoes” for “animals”, “Aedes aegypti” for “Blattella germanica”, “MONHEIM” for “PAULINIA”, “minutes. Mortality in percent (%) is determined 24 hours after contact of the insects to the treated surface. 100% mortality means that all tested insects are dead, whereas 0% means that no insect died.” for “minutes.”

[17] = system: Musca domestica strain WHO-N; assay: Musca domestica test (MUSCDO surface treatment & contact assay); conditions: 24 hours after contact, read-out: efficacy (mortality)
Description: as §1
as §2, with “flies” for “animals”, “Musca domestica” for “Blattella germanica”, “WHO-N” for “PAULINIA”, “minutes. Mortality in percent (%) is determined 24 hours after contact of the insects to the treated surface. 100% mortality means that all tested insects are dead, whereas 0% means that no insect died.” for “minutes.”

[18] = system: brown planthopper (Nilaparvata lugens); assay: Nilaparvata lugens spray test; conditions: in Oryza sativa, 96 h
Method in brief: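 Rice plants (Oryza sativa) sprayed with compound in acetone/DMF diluted in water containing 1000 ppm alkylarylpolyglycol ether emulsifier, then infested with planthoppers. Mortality % scored after 4 days (100% = all killed, 0% = none killed).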

[19] = surface concentration 4 mg/m^2, 30 minutes exposure
[20] = surface concentration 20 mg/m^2, 30 minutes exposure

CC(NC(=O)c1cc(Cl)cc(S(C)(=O)=O)c1)c1nc(NC(=O)C2(Cl)CC2)nn1-c1ccc(Cl)cn1 (stereo not shown) [I-012]
mortality at 500 g/ha ([1]; 500 g/ha): 90%
mortality at 4 ppm [2]: 100%
pest or weed control at 0.004 mg ([3]; 4 μg/animal): 100%
pest or weed control at 0.02 mg ([3]; 20 μg/animal): 100%
pest or weed control at 1 µg/cm2, 100 g/ha [4]: 100%
pest or weed control at 5 µg/cm2, 500 g/ha [4]: 100%
pest or weed control at 5 µg/cm2 [5]: 100%
mortality at 500 g/ha [6]: 90%
mortality at 100 g/ha [7]: 100%
mortality at 500 g/ha [7]: 100%
mortality at 20 ppm [8]: 100%
mortality at 100 ppm [9]: 100%
mortality at 100 g/ha [10]: 100%
mortality at 500 g/ha [10]: 100%
pest or weed control at 32 µg/disc, 100 g/ha [11]: 100%
pest or weed control at 160 µg/disc, 500 g/ha [11]: 100%

CC(NC(=O)c1cc(Cl)cc(C(F)(F)F)c1)c1nc([S+](C)[O-])nn1-c1ccc(Cl)cn1 (stereo not shown) [I-064]
mortality at 4 ppm [2]: 100%
mortality at 500 g/ha [6]: 100%
mortality at 100 g/ha [7]: 100%
mortality at 500 g/ha [7]: 100%
pest or weed control at 20 ppm [12]: 90%
mortality at 100 g/ha [10]: 100%
mortality at 500 g/ha [10]: 100%
pest or weed control at 32 µg/disc, 100 g/ha [11]: 100%
pest or weed control at 160 µg/disc, 500 g/ha [11]: 100%

C[C@H](NC(=O)c1cc(OC(F)(F)F)cc(C2CC2)c1)c1nc(N(C)C)nn1-c1ncccn1 [I-138]
mortality at 100 g/ha ([1]; 100 g/ha): 90%
mortality at 4 mg/m2 [13, 19]: 90 to 100%
mortality at 20 mg/m2 [13, 20]: 90 to 100%
pest or weed control at 1 µg/cm2, 100 g/ha [4]: 100%
pest or weed control at 5 µg/cm2, 500 g/ha [4]: 100%
pest or weed control at 5 µg/cm2 [5]: 100%
mortality at 20 mg/m2 [14]: 90 to 100%
pest or weed control at 5 µg/cm2 [15]: 100%
mortality at 4 mg/m2 [16, 19]: 90 to 100%
mortality at 20 mg/m2 [16, 20]: 90 to 100%
mortality at 4 mg/m2 [17, 19]: 90 to 100%
mortality at 20 mg/m2 [17, 20]: 90 to 100%
mortality at 500 g/ha [18]: 100%
mortality at 100 g/ha [10]: 100%
pest or weed control at 32 µg/disc, 100 g/ha [11]: 100%
